Key:
human NOP receptor = human NOP receptor (Homo sapiens, UniProt P41146); assay: Calcium mobilization in CHO cells expressing human NOP receptor and Gαqi5; format: cell-based; settings: inactive = inactive up to 1 μM
Method: (§1) Cells were maintained in culture medium consisting of Dulbecco's MEM/HAM'S F-12 (50/50) supplemented with 10% foetal calf serum, penicillin (100 IU/ml), streptomycin (100 μg/ml), fungizone (2.5 μg/ml), geneticin (G418; 200 μg/ml) and hygromycin B (200 mg/ml). Cell cultures were kept at 37° C. in 5% CO2 humidified air. In all cases experimental cultures were free from selection agents (hygromycin B, G418). When confluence was reached (3-4 days), cells were sub-cultured as required using trypsin EDTA and used for experimentation. Cells were seeded at a density of 50,000 cells/well into 96-well black, clear-bottom plates. After 24 hours incubation the cells were loaded with medium supplemented with 2.5 mM probenecid, 3 μM of the calcium sensitive fluorescent dye Fluo-4 AM and 0.01% pluronic acid, for 30 min at 37° C. Afterwards the loading solution was aspirated and 100 μl/well of assay buffer: Hank's Balanced Salt Solution (HBSS) supplemented with 20 mM HEPES, 2.5 mM probenecid and 500 μM Brilliant Black (Aldrich) was added. […] On-line additions were carried out in a volume of 50 μl/well. To facilitate drug diffusion into the wells in antagonist type experiments, the present studies were performed at 37° C. and three cycles of mixing (25 μl from each well moved up and down 3 times) were performed immediately after antagonist injection to the wells.
(§2) Four mice were monitored in parallel. […] Animals locomotion was recorded for 60 min.

DOP receptor = biological target: T1, DOP receptor (Homo sapiens, UniProt P41143); assay: Calcium mobilization in CHO cells expressing DOP receptor and GαqG66Di5; format: cell-based
T1 construct: expressed in transfected cells; host or cells: CHO cells co-expressing GαqG66Di5
T1 sequence (P41143 whole entry): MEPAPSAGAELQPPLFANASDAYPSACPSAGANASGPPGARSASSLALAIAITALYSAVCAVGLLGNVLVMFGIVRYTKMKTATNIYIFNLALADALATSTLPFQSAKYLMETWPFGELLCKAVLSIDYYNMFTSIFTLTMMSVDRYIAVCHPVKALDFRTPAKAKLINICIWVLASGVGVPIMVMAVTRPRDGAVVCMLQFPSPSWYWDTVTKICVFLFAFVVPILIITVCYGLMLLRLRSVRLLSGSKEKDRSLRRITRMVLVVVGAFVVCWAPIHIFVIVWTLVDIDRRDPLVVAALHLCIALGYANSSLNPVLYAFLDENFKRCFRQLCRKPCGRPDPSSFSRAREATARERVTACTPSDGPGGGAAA
Method: as §1, with “Cell” for “Cells were maintained in culture medium consisting of Dulbecco's MEM/HAM'S F-12 (50/50) supplemented with 10% foetal calf serum, penicillin (100 IU/ml), streptomycin (100 μg/ml), fungizone (2.5 μg/ml), geneticin (G418; 200 μg/ml) and hygromycin B (200 mg/ml). Cell”
as §2

KOP receptor = KOP receptor (Homo sapiens, UniProt P41145); assay: Calcium mobilization in CHO cells expressing KOP receptor and Gαqi5; format: cell-based; settings: inactive = inactive up to 1 μM
Chain of KOP receptor (P41145 whole entry, the tested form may be a part): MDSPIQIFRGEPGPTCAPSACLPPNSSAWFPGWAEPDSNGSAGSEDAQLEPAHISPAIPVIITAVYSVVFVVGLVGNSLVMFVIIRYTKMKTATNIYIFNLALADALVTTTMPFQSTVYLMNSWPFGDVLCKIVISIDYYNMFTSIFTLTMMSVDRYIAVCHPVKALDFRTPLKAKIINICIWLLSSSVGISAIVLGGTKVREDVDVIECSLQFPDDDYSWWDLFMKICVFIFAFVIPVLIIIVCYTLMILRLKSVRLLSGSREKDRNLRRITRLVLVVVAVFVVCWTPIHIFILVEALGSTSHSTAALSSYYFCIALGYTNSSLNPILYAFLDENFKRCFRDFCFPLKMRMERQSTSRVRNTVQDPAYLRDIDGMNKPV
Method: as §1, with “To facilitate drug diffusion into the wells in antagonist type experiments, the present studies were performed at 37° C. and three cycles of mixing (25 μl from each well moved up and down 3 times) were performed immediately after antagonist injection to the wells.” left out
as §2

[1] = system: electrically stimulated mouse vas deferens; assay: Electrically stimulated mouse vas deferens
Method: The bath temperature was set at 33° C. Tissues were continuously stimulated through two platinum ring electrodes with supramaximal rectangular pulses of 1 ms duration and 0.05 Hz frequency. A resting tension of 0.3 g was applied to the vas deferens.
assuming a slope value equal to unity, where CR indicate the ratio between agonist potency in the presence and absence of antagonist.

[2] = system: electrically stimulated mouse vas deferens; settings: versus N/OFQ; Spagnolo et al. 2007; cited from earlier work
MOP receptor = MOP receptor (Homo sapiens, UniProt P35372); assay: Calcium mobilization in CHO cells expressing MOP receptor and Gαqi5; format: cell-based; settings: inactive = inactive up to 1 μM
Chain of MOP receptor (P35372 whole entry): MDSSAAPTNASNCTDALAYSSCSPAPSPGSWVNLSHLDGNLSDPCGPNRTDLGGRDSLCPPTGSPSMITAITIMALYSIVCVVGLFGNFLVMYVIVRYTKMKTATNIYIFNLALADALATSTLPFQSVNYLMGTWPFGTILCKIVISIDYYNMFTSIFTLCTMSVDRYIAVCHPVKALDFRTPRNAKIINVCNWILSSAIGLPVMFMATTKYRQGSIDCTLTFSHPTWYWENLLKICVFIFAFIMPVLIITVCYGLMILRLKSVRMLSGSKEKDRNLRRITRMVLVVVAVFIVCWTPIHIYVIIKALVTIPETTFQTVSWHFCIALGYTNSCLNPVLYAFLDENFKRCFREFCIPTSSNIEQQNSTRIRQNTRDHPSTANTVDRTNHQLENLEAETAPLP
Method: as §1, with “Cell” for “Cells were maintained in culture medium consisting of Dulbecco's MEM/HAM'S F-12 (50/50) supplemented with 10% foetal calf serum, penicillin (100 IU/ml), streptomycin (100 μg/ml), fungizone (2.5 μg/ml), geneticin (G418; 200 μg/ml) and hygromycin B (200 mg/ml). Cell”
as §2

[3] = system: vas deferens tissues taken from NOP(+/+) mice; assay: Electrically stimulated vas deferens from NOP(+/+) mice; set-up: species or system mouse
Method: The bath temperature was set at 33° C. Tissues were continuously stimulated through two platinum ring electrodes with supramaximal rectangular pulses of 1 ms duration and 0.05 Hz frequency. A resting tension of 0.3 g was applied to the vas deferens. […] Following an equilibration period of 60 min, the contractions induced by electrical field stimulation were stable.

[4] = system: vas deferens tissues taken from NOP(−/−) mice; assay: Electrically stimulated vas deferens from NOP(−/−) mice; set-up: species or system mouse
Method: The mouse vas deferens were prepared as previously described (Calto et al., Eur J Pharmacol. 311, (1996) R3-5). Tissues were suspended in 5 ml organ baths containing heated Krebs solution (composition in mM: NaCl 118.5, KCl 4.7, KH2PO4 1.2, NaHCO3 25, glucose 10 and CaCl2 2.5) oxygenated with 95% O2 and 5% CO2. The bath temperature was set at 33° C. Tissues were continuously stimulated through two platinum ring electrodes with supramaximal rectangular pulses of 1 ms duration and 0.05 Hz frequency. A resting tension of 0.3 g was applied to the vas deferens. The electrically evoked contractions (twitches) were measured isotonically with a strain gauge transducer (Basile 7006, UgoBasile s.r.l., Varese, Italy) and recorded with the PC based acquisition system Power Lab (ADInstrument, USA). Following an equilibration period of 60 min, the contractions induced by electrical field stimulation were stable.

Chain of human NOP receptor (P41146 whole entry): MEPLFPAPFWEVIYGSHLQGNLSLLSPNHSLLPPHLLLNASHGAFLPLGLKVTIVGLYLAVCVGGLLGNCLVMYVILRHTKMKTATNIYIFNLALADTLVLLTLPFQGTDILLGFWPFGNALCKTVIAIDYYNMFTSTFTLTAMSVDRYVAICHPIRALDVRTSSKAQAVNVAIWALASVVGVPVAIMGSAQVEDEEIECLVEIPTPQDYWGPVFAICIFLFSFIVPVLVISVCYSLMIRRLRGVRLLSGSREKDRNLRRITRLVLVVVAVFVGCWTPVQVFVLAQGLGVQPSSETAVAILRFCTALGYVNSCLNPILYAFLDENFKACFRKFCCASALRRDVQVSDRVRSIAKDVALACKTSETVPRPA

## C[C@@H](NC(=O)[C@@H](N)Cc1ccc(O)cc1)C(=O)N[C@@H](Cc1ccccc1)C(=O)NCC(=O)N[C@@H](Cc1ccc(O)cc1)C(=O)N1CCC[C@H]1C(=O)N[C@@H](CO)C(N)=O [Dermorphin]
Human NOP receptor
  pEC50 (CL95%): inactive
DOP receptor; inactive = inactive up to 1 μM
  pEC50: inactive
KOP receptor
  pEC50: inactive

## Cc1cccc2c1CC[C@H](CN1CCC(c3c(Cl)cccc3Cl)CC1)C[C@@H]2O [SB-612111, reference compound]
[1]; 100 nM
  effect per se on control twitches: did not modify per se the control twitches
[1]; Mus musculus, read-out: SB-612111 pKB (CL95%), SB-612111 100 nM versus N/OFQ (converted)
  Kb: 3.31 nM
[2]
  SB-612111 pKB, literature: 8.50

## DPDPE
Human NOP receptor
  pEC50 (CL95%): inactive
MOP receptor
  pEC50: inactive
DOP receptor
  maximal effects: 86±14%
KOP receptor
  pEC50: inactive
[3]; CL95% in brackets
  pEC50: 8.45 (8.19-8.71)
[3]; maximal inhibition of electrically induced contractions
  Emax: 91 ± 3%
[4]
  Emax: 94 ± 3
[4]; CL95% in brackets
  pEC50: 8.42 (8.16-8.68)

## Dynorphin A
Human NOP receptor
  pEC50 (CL95%): inactive

Reference: patent US9962447B2, “Supramolecular aggregates comprising maleimido cores” (UFPEPTIDES S.R.L., priority 2013, dated 2018)
